Marks after values point to notes of the source that are not given here.
Legend:
[1] = test system: T1, farnesoid X receptor (FXR); assay: Differential scanning fluorimetry (DSF) screen on FXR; type: binding, human; details: 500 μM fragment, mean of duplicates
T1 construct: made in house; host or cells: E. coli BL21 (DE3)
Text: For the primary screen of this fragment library, we employed differential scanning fluorimetry (DSF, also known as thermal shift). DSF is generally applicable to a large panel of protein targets and provides a robust, low‐cost screening technology for fragment‐based approaches. ^[20] […] We performed an initial fragment screen on all five targets by DSF.
Figure S3: SDS page of the purified proteins (proteins RXRα and FXR after TEV cleavage) using a 14% polyacrylamide gel, which was stained with coomassi. Precision Plus Protein™ Unstained Protein Standard s (Bio-Rad Laboratories, Inc. ) was used […]
All experiments were performed as duplicates using MicroAmp fast 96 -well plates. Each plate contained 80 different compound wells and 16 DMSO control wells. First 0.8 µl of a 25 mM Preswick Library Fragment dilution in DMSO or pure DMSO were placed in each of the well (final concentration 500 µM). Then 39.2 µl of the master mi x (containing protein, Triton x -100, SYPRO® Orange Protein Gel Stain and buffer that corresponds to the tested protein) were added.
Table S4: Final concentrations in DSF experiments:
Protein Final concentrations under screening conditions
The measurements were performed using a iCycler iQ™ Single -Color Real Time PCR device with a heat rate of 1 °C per min, an excitation wavelength of 490 nm and an emission wavelength of 570 nm. The first derivation calculated by MyiQ Op tical Software 1.0 was analyzed using Microsoft Office Excel 2013 by comparing the maxima. A shift of 1 °C (in case of 5 -LOX 0.9°C) or more compared to the DMSO control were assumed as potentially binding of the fragment.
(1 picture or pasted object on this page, not shown here)

[2] = molecular target: T2, leukotriene A4 hydrolase (LTA4H) (Homo sapiens, UniProt P09960); assay: LTA4H activity assay (fluorogenic substrate Arg-AMC); type: biochemical; details: for LTA4H LE: ligand efficiency calculated from IC50; for IC50: mean±standard deviation of three independent experiments
T2 construct: made in house; host or cells: E. coli BL21 (DE3)
T2 sequence (P09960 1-611): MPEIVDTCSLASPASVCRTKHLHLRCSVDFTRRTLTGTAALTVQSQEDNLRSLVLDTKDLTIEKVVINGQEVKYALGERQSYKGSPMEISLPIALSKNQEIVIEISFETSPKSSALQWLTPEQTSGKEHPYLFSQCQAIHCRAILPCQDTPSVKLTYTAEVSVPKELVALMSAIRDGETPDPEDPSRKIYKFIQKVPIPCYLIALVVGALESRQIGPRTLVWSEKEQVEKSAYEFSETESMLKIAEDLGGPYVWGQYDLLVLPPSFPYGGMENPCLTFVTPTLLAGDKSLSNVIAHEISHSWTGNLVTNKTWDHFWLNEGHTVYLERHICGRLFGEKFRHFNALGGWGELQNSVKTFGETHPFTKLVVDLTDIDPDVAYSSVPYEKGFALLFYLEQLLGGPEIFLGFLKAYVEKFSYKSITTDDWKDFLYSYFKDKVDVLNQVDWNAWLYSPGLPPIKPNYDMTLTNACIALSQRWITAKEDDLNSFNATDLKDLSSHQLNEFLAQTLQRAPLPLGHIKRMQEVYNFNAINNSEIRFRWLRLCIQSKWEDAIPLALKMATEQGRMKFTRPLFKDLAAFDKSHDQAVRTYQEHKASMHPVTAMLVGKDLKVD
Experimental: For hit validation, we employed secondary assays with orthogonal readouts to confirm fragment activities. Biochemical activity assays were chosen for the enzymes sEH, LTA4H, and 5‐LOX. […] RXRα and FXR modulation was assessed in cell‐based hybrid reporter gene assays. All ten compounds were tested at a single concentration of 500 μM in the sEH and LTA4H activity assays and with a concentration of 100 μM on 5‐LOX, RXRα, and FXR. Fragments showing an inhibition greater than 50 % (sEH‐H and LTA4H) or greater than 70 % (5‐LOX) as well as the hits determined in the DSF experiments were further characterized in full concentration‐response curves between 0.1 and 1000 μM. […] As alternative cell‐free assay we employed isothermal titration calorimetry (ITC) to determine binding affinity of the fragments towards the LBDs of both nuclear receptors. ITC was performed with a protein concentration of 50 μM and compound concentrations of 250 μM.
The 10 fragments showing dual activity in the DSF experiments were validated by functional assay screening with a fixed concentration of 500 µM in case of sEH-H and LTA4H, 100 µM in case of 5-LOX and 30 µM, 10 µM and 5 µM in case of FXR and […]
% (5-LOX) as well as the hits determined in the DSF experiments were further measured with concentrations between 1000 µM and 0.1 µM (sEH-H and LTA4H) and between 300 µM and 1 µM (5-LOX). The sEH and LTA4H activity assays were performed as triplicate and repeated 3 times. The 5-LOX activity assay was performed with one point per concentration and repeated 3 times Raw data was first analyzed in Microsoft Office Excel (2013), before IC50 curves were plotted and further analyzed using GraphPad Prism 7 and GraphPad Prism 8 for the shown graphs .
The eight approved drugs were measured in the orthogonal assay systems analogous to the fragments. The approved drugs were […]
For the sEH-H and LTA4H, they were measured as triplicate in concentrations between 1000 µM and 1 µM and each measurement was repeated three times. […]
Raw data was processed according to the fragments. […]
The LTA4H activity assay was performed adapted from Hiesinger et al.3.As in the sEH-H measurement 1 µl of compound dilution in DMSO or pure DMSO (for the positive and negative control) was placed in a black 96-well plate (Thermo Scientific™ Nunc™ F96 MicroWell™ Black Polystyrene Plate) and then 89 µl of protein-mix or buffer mix (without protein as negative control) were added and incubated for 30 min at room temperature.

| SMILES | DSF/ΔT m FXR [1] | LTA4H LE [2] [kcal/mol] | IC50 [2] [µM] |
| --- | --- | --- | --- |
| c1ccc(N2CCNCC2)nc1 [Compound 1] | −0.1±0.0 °C |  |  |
| Cc1cc(=O)n(-c2ccc(C)c(C)c2)[nH]1 [Compound 2] | 0.3±0.0 °C |  |  |
| CCCCOc1cc(C(=O)OC)ccc1N [Compound 3] | 1.4±0.7 °C | 0.39 | 24.6 ± 3.2 |
| Oc1ccc(Cc2ccccc2)cc1 [Compound 4] |  |  | 3 ± 0.5 |
| Cc1ccccc1C(=O)Nc1ccccc1 [Compound 6] | −1.2±0.7 °C |  |  |

Second part, the compound after the results:

| DSF/ΔT m FXR [1] | LTA4H LE [2] [kcal/mol] | IC50 [2] [µM] | SMILES |
| --- | --- | --- | --- |
| 1.2±0.0 °C |  | > 300 | Oc1ccc2cc[nH]c2c1 [Compound 5] |
|  |  | > 300 | CCN(Cc1ccccc1)c1ccccc1 [Compound 7] |
| 21.7±3.5 ^[a] °C | 0.40 | 36.2 ± 7.6 | Oc1ccc(-c2ccc(F)cc2F)cc1 [Compound 9] |
| −11.6±2.1 °C | 0.31 | 255 ± 24.9 | Fc1ccc(-c2c[nH]c3ccccc23)cc1 [Compound 10] |
